Test results: patent US6159733A, “Method for photoinactivating malignant cells” (priority 1996, dated 2000)

How the values were obtained:
[1] = Photosensitivity of committed BM progenitors, colony forming assay; assay type: cell-based, murine; conditions: mouse
Text: (§1) Animals. C57B1/6 (Ly-5.2) and B6SJ-cd45 ^b pep 3^b /BOY J (Ly-5.1), were obtained from The Jackson Laboratories (Bar Harbor, Me.) and were maintained in the animal facility of the New York Blood Center. After gamma-irradiation, the animals were housed in microisolator cages and provided with autoclaved food and autoclaved acidified water (pH=3) ad libitum. Preparation of bone marrow cell suspensions--Ly-5.1 mice were used as the source of donor BM. Mice (8-10 weeks old) were killed and the BM was harvested by flushing the femoral shafts with Hank's balanced salt solution (HBSS), pH 7.4. The cell suspensions were centrifuged, washed once and the cells were finally resuspended in HBSS--10% vol/vol fetal bovine serum (FBS, Gemini Bioproducts Inc., Calabasas, Calif.).
(§2) Photosensitization. Aliquots of a 1.87 mM Pc 4 (kindly provided by Dr. M. E. Kenney) stock solution in dimethyl sulfoxide were kept at -80° C. in autoclaved brown glass vials. Immediately prior to the photosensitization, Pc4 was thawed and diluted in dimethyl formamide to yield a 10 μM working solution. […] Pc 4 was used at 15 nM throughout the experiments.
(§3) BM and cell line samples, were incubated with 15 nM Pc 4 for two hours at 37° C. at cell concentrations of 1.5×10^7 cells/mL. Aliquots of 1.5 mL were transferred to 24-well plates; separate plates were used for each sample.
(§4) In a second set of experiments, the cells were incubated with 15 nM Pc 4 at cell concentrations of 1.5×10^6 cells/mL. Prior to photoirradiation, the samples were centrifuged and the supernatants were aspirated and set aside. The cell concentrations were adjusted to 1.5×10^7 cells/mL by adding back an appropriate volume of the Pc 4 containing aspirates.
(§5) Photoinactivation. The light source used was a filtered xenon short arc lamp (Versa-Light, Model UV-R6G, Medic Lightech, Ltd., Haifa, Israel). It was used to deliver red light (λ 600-700 nm) to the sensitized cells. After a 20 minute warm up period of the instrument, the distance from the light source to the bottom of the 24-well plate was adjusted to obtain a fluence rate of 26.6 mW/cm^2, as measured with a radiometer (Model IL 1350, International Light, Newburyport, Mass.). Samples were placed under the light source and were stirred during the irradiations. Before and after the irradiations, samples were kept in the dark.
(§6) Colony forming assays. BM samples were plated (in duplicate) in a semi-solid medium that contained IMDM (GibcoBRL), supplemented with 30% vol/vol FBS, 0.15% wt/vol deionized bovine serum albumin (Migliaccio, G., et al. Brit. J. Haematol. 67:129 (1987)) (Sigma, St. Louis, Mo.), 0.8% wt/vol methylcellulose, 75 μM β-mercaptoethanol (Sigma), antibiotics (100 U/mL penicillin, […], […] fungizone, GibcoBRL) and a cocktail of growth factors including: murine interleukin-3 (1% vol/vol COS-cell-derived supernatant, gift from Dr. K. Kaushansky), murine granulocyte-macrophage colony stimulating factor (1% vol/vol COS-cell-derived supernatant, gift from Dr. K. Kaushansky), recombinant human interleukin-11 (16 U/mL, gift from Genetics Institute, Cambridge, Mass.), recombinant rat stem cell factor (100 ng/mL), granulocyte colony stimulating factor (10 ng/mL), recombinant human erythropoietin (20 ng/mL, gifts from Amgen, Thousand Oaks, Calif.), and 800 U/mL murine thrombopoietin (800 U/mL, gift from Zymonetics, Seattle, Wash.). The samples were incubated at 37° C. in a humidified 5% CO2 -incubator and megakaryocyte colony forming units (CFU-Mk) were counted after 5 days. Blast forming units-erythroid (BFU-E), CFU-GM and mixed colonies (CFU-Mix) were counted after seven days.
(§7) Statistics. All assays were performed in triplicate unless mentioned otherwise. Data are expressed as mean values±standard error of the mean (SEM). Survival data are presented as surviving fractions relative to the surviving fractions of the untreated controls. […]

BFU-E = assay: as above; assay type: cell-based, murine; conditions: 15 nM, 1.5×10^6 cells/mL
Text: as §1, §2, §3, §4, §5, §6, §7

CFU-GM = assay: as above; assay type: cell-based, murine; conditions: 15 nM, 1.5×10^6 cells/mL
Text: as §1, §2, §3, §4, §5, §6, §7

CFU-Mix = assay: as above; assay type: cell-based, murine; conditions: 15 nM, 1.5×10^6 cells/mL
Text: as §1, §2, §3, §4, §5, §6, §7

CFU-Mk = assay: as above; assay type: cell-based, murine; conditions: 15 nM, 1.5×10^6 cells/mL
Text: as §1, §2, §3, §4, §5, §6, §7

[2] = tested on: committed BM progenitor cells; assay: as above; assay type: cell-based, murine
Text: as §1, §2, §3, §4, §5, §6, §7

BC3A cells = assay: Uptake of Pc 4 in mixtures of BM and cell lines; assay type: cell-based, murine; conditions: for Pc 4 content in cell line: BM/BC3A
Protocol: (§8) In mixing experiments, aliquots of Ly-5.2 BM and cell lines samples were mixed at different ratios. The combined cell concentration of each sample was 1.5×10^7 cells/mL. […] The cell lines were stained with anti-Ly-5.1^FITC. This treatment allowed clear resolution of the relatively small ABE-8.1/2 and BC3A cells from the bone marrow granulocytes. Immediately prior to the analyses, propidium iodide (PI, 0.5 μg/mL) was added to the samples to allow exclusion of dead cells (PI^+) from the analyses. The samples were analyzed in a FACStar^PLUS (BD) that was equipped with an argon ion laser tuned to 488 nm (200 mW) and a dye laser tuned to 610 nm (300 mW). FITC, PE, PI and Pc 4 fluorescence emissions were collected through 530/30, 575/42, 660/10, 670/10 nm band pass filters, respectively.

L1210 cells = assay: Uptake of Pc 4 in mixtures of BM and cell lines; assay type: cell-based, murine
Protocol: as §8

P815 cells = assay: Uptake of Pc 4 in mixtures of BM and cell lines; assay type: cell-based, murine
Protocol: as §8

WEHI-3 cells = assay: Uptake of Pc 4 in mixtures of BM and cell lines; assay type: cell-based, murine
Protocol: as §8

HL-60 = conditions: 15 nM Pc 4, 5×10^6 cells/mL, 8 J/cm^2; cited from earlier work
[3] = versus 1.5×10^7 cells/mL without BM

CN(C)CCC[Si](C)(C)O[Si]1(O)n2c3c4ccccc4c2N=C2N=C(N=c4c5ccccc5c(n41)=NC1=NC(=N3)c3ccccc31)c1ccccc12 (stereo not drawn) [Pc 4, hydroxysiloxy-dimethylpropyl-N-dimethyl silicon phthalocyanine]
cytotoxicity at 0.015 µM ([1]; bone marrow cfu-gm, 15 nM Pc 4, murine BM, read-out: losses of CFU-GM on incubation): 0 to 15%
viability at 0.015 µM ([1]; bone marrow progenitors, 15 nM, 1.5×10^7 cells/mL, 18 J/cm^2, read-out: surviving fraction (colony forming ability relative to untreated controls)): < 0.3%
fluence for photoinactivation to below the detection levels (BFU-E): 3 J/cm^2
fluence for photoinactivation to below the detection levels (CFU-GM): 6 J/cm^2
fluence for photoinactivation to below the detection levels (CFU-Mix): 3 J/cm^2
fluence for photoinactivation to below the detection levels (CFU-Mk): 6 J/cm^2
photosensitivity of all committed progenitor subsets ([2]; 15 nM, 1.5×10^7 cells/mL, 3 J/cm^2): resistant
loss of committed progenitor cells ([2]; Pc 4, 18 J/cm^2): 2-3 logs
Pc 4 content in cell line (BC3A cells; BM fraction 0.50): 104 Mean fluorescence/cell
Pc 4 content in cell line (BC3A cells; BM fraction 0.70): 26 Mean fluorescence/cell
Pc 4 content in cell line (BC3A cells; BM fraction 0.80): 138 Mean fluorescence/cell
Pc 4 content in cell line (BC3A cells; BM fraction 0.90): 153 Mean fluorescence/cell
Pc 4 content in cell line (BC3A cells; BM fraction 0.95): 166 Mean fluorescence/cell
Pc 4 uptake in mixtures versus cell line alone (BC3A cells; [3]): contained more Pc 4
Pc 4 content in cell line (L1210 cells; BM/L1210, BM fraction 0.50): 153 Mean fluorescence/cell
Pc 4 content in cell line (L1210 cells; BM/L1210, BM fraction 0.70): 189 Mean fluorescence/cell
Pc 4 content in cell line (L1210 cells; BM/L1210, BM fraction 0.80): 210 Mean fluorescence/cell
Pc 4 content in cell line (L1210 cells; BM/L1210, BM fraction 0.90): 242 Mean fluorescence/cell
Pc 4 content in cell line (L1210 cells; BM/L1210, BM fraction 0.95): 260 Mean fluorescence/cell
Pc 4 uptake in mixtures versus cell line alone (L1210 cells; [3]): contained more Pc 4
Pc 4 content in cell line (P815 cells; BM/P815, BM fraction 0.50): 205 Mean fluorescence/cell
Pc 4 content in cell line (P815 cells; BM/P815, BM fraction 0.70): 241 Mean fluorescence/cell
Pc 4 content in cell line (P815 cells; BM/P815, BM fraction 0.80): 270 Mean fluorescence/cell
Pc 4 content in cell line (P815 cells; BM/P815, BM fraction 0.90): 312 Mean fluorescence/cell
Pc 4 content in cell line (P815 cells; BM/P815, BM fraction 0.95): 335 Mean fluorescence/cell
Pc 4 uptake in mixtures versus cell line alone (P815 cells; [3]): contained more Pc 4
Pc 4 content in cell line (WEHI-3 cells; BM/WEHI-3, BM fraction 0.50): 106 Mean fluorescence/cell
Pc 4 content in cell line (WEHI-3 cells; BM/WEHI-3, BM fraction 0.70): 140 Mean fluorescence/cell
Pc 4 content in cell line (WEHI-3 cells; BM/WEHI-3, BM fraction 0.80): 164 Mean fluorescence/cell
Pc 4 content in cell line (WEHI-3 cells; BM/WEHI-3, BM fraction 0.90): 204 Mean fluorescence/cell
Pc 4 content in cell line (WEHI-3 cells; BM/WEHI-3, BM fraction 0.95): 229 Mean fluorescence/cell
Pc 4 uptake in mixtures versus cell line alone (WEHI-3 cells; [3]): contained more Pc 4
surviving fraction of human cells (HL-60): < 10^-5
